pIC50: −log10 of the molar value.
Key:
PRMT5 [1] = molecular target: T1, PRMT5 (Homo sapiens, UniProt O14744); test: PRMT5 biochemical IC50 assay with SAM as cofactor; conditions: PRMT5, SAM as cofactor; read-out: SAM IC50
T1 construct: purchased Viva (custom protein)

PRMT5 [2] = molecular target: T1, PRMT5; test: PRMT5 biochemical IC50 assay with no cofactor; conditions: PRMT5, no cofactor
Excerpt: Table 1 indicates IC50 values (μM) against PRMT5 for exemplary compounds in the presence of SAM as cofactor, with no cofactor, and with MTA as cofactor, respectively (columns 4-6). […] Ki values can be calculated from the IC50 values as described in the Examples section. As detailed in the Examples section, for the assay performed in the presence of SAM, IC50=Ki×1.5 (Ki=IC50/1.5).

PRMT5 [3] = molecular target: T1, PRMT5; test: PRMT5 biochemical IC50 assay with MTA as cofactor; conditions: PRMT5, MTA as cofactor; read-out: MTA IC50
[4] = test system: HAP1 MTAP-intact cell line; test: SDMA in-cell western assay, HAP1 MTAP-intact; assay type: cell-based; conditions: Homo sapiens, HAP1, SDMA in-cell western, HAP1 MTAP-intact; read-out: MTAP HAP1 intact IC50
Method in brief: (§1)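 IC50 values come from SDMA signal quantified by in-cell western in two HAP1 lines, one with native MTAP levels and one lacking MTAP.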

[5] = test system: HAP1 MTAP-deleted cell line; test: SDMA in-cell western assay, HAP1 MTAP-deleted; assay type: cell-based; conditions: for pIC50: Homo sapiens, HAP1, SDMA in-cell western, HAP1 MTAP-deleted; for MTAP intact/deleted ratio: SDMA in-cell western
Method in brief: as §1

[6] = test system: HAP1 MTAP-deleted cell line; test: Viability assay, MTAP-deleted cell line; assay type: cell-based; conditions: Homo sapiens, read-out: HAP1 MTAP deleted viability
Excerpt: Table 1 additionally indicates IC50 values in a viability assay for the MTAP-deleted cell line (column 10), indicating the effect of treatment with compound on cell survival.

[7] = read-out: HAP1 MTAP deleted IC50
[8] = IC50 ratio HAP1 MTAP-intact / HAP1 MTAP-deleted
[9] = HAP1, viability assay, HAP1 MTAP-deleted
[10] = read-out: HAP 1 MTAP deleted IC50
[11] = HAP1, viability IC50, MTAP-deleted cell line
[12] = HAP1, viability assay, MTAP-deleted cell line
[13] = read-out: No Cofactor/ rel IC50
[14] = HAP1, viability, HAP1 MTAP-deleted cell line
[15] = IC50 ratio HAP1 MTAP-intact vs HAP1 MTAP-deleted

T1 sequence (O14744 whole entry): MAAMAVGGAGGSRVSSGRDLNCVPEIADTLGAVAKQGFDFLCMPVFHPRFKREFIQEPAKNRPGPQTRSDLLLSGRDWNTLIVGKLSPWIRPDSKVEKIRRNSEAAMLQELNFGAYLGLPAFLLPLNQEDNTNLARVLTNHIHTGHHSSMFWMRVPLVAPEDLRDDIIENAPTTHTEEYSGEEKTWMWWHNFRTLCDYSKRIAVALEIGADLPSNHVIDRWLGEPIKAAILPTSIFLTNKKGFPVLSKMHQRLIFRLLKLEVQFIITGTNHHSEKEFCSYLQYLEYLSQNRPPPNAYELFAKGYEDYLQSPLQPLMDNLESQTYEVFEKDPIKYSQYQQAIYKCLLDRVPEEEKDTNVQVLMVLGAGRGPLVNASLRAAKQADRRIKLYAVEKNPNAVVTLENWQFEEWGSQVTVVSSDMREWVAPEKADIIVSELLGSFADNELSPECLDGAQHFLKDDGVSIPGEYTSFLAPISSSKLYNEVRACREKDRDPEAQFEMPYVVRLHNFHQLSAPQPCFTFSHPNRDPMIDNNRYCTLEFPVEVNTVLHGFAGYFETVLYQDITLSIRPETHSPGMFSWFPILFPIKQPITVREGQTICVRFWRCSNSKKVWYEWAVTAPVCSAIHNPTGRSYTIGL
T1 sequence (Q9BQA1 whole entry partner): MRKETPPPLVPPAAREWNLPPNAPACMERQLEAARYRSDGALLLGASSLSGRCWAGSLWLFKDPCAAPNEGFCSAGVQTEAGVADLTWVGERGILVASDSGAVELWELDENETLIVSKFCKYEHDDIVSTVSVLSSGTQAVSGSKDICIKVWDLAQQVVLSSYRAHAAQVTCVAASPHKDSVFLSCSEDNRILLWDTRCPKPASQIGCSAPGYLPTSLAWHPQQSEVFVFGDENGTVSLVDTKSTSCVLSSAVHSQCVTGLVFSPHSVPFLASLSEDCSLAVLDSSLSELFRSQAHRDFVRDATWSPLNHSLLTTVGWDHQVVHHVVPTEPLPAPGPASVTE

Row | Structure (SMILES) | pIC50 (PRMT5 [1]) | pIC50 (PRMT5 [2]; read-out: No Cofactor/rel IC50) | pIC50 (PRMT5 [3]) | pIC50 [4] | pIC50 [5, 7] | MTAP intact/deleted ratio [5, 8] | pIC50 [6, 9] | pIC50 [5, 10] | pIC50 [6, 11] | pIC50 [6, 12] | pIC50 (PRMT5 [2]; [13]) | pIC50 [6, 14] | MTAP intact/deleted ratio [5, 15]
1 | C[C@H]1CC[C@H](c2ccc(C(N)=O)s2)N(C(=O)C(=O)Nc2cncc(C(N)=O)c2)C1 (single isomer, unassigned) [Compound 796] | < 6.30 | < 6.30 | < 6.30 | < 6.00 | < 6.00 | C (an IC50 ratio of less than 3 fold) | < 5.00 | – | – | – | – | – | –
2 | C[C@@H]1CC[C@@H](c2ccccc2C#N)N(C(=O)C(=O)Nc2cncc(C(N)=O)c2)C1 (racemic) [Compound 664, 5-[[2-[(2R,5S)-2-(2-Cyanophenyl)-5-methyl-1-piperidyl]-2-oxo-acetyl]amino]pyridine-3-carboxamide] | < 6.30 | < 6.30 | 6.30 to 7.30 | < 6.00 | – | B (an IC50 ratio greater than or equal to 3 fold but lower than 10 fold) | – | < 6.00 | < 5.00 | – | – | – | –
3 | Cc1nc2cc([C@H]3CC[C@H](C)CN3C(=O)C(=O)Nc3cnc(N)c(C)c3)ccc2[nH]1 (single isomer, unassigned) [Compound 947] | 6.30 to 7.30 | 6.30 to 7.30 | > 7.30 | 6.00 to 7.00 | – | A (an IC50 ratio greater than or equal to 10 fold) | – | > 7.00 | – | > 6.00 | – | – | –
4 | C[C@@H]1CC[C@@H](c2cc[nH]n2)N(C(=O)C(=O)Nc2cncc(C(N)=O)c2)C1 (single isomer, unassigned) [Compound 1007] | < 6.30 | < 6.30 | < 6.30 | < 6.00 | – | B (an IC50 ratio greater than or equal to 3 fold but lower than 10 fold) | – | < 6.00 | – | < 5.00 | – | – | –
5 | COc1ncc(NC(=O)C(=O)N2C[C@@H](C)CC[C@@H]2c2ccc3sc(C[C@@H](C)N(C)C)nc3c2)cc1C(N)=O [Compound 1317, 5-(2-((2R,5S)-2-(2-((R)-2-(dimethylamino)propyl)benzo[d]thiazol-5-yl)-5-methylpiperidin-1-yl)-2-oxoacetamido)-2-methoxynicotinamide] | 6.30 to 7.30 | – | > 7.30 | > 7.00 | – | A (an IC50 ratio greater than or equal to 10 fold) | – | > 7.00 | – | – | > 7.30 | > 6.00 | –
6 | C[C@@H]1CN(C(=O)C(=O)Nc2cncc(C(N)=O)c2)[C@@H](c2ccc(F)c(F)c2)CC1(F)F (single isomer, unassigned) [Compound 706] | < 6.30 | < 6.30 | < 6.30 | < 6.00 | < 6.00 | B (an IC50 ratio greater than or equal to 3 fold but lower than 10 fold) | < 5.00 | – | – | – | – | – | –
7 | Cc1cc(NC(=O)C(=O)N2C[C@H](C)CC[C@H]2c2ccc(N)nc2)cnc1N (single isomer, unassigned) [Compound 848] | 6.30 to 7.30 | > 7.30 | > 7.30 | 6.00 to 7.00 | > 7.00 | A (an IC50 ratio greater than or equal to 10 fold) | > 6.00 | – | – | – | – | – | –
8 | COc1ncc(NC(=O)C(=O)N2C[C@H](C)CC[C@H]2c2cc(Cl)cc(Cl)c2)cc1C(N)=O (single isomer, unassigned) [Compound 965] | < 6.30 | < 6.30 | < 6.30 | < 6.00 | – | B (an IC50 ratio greater than or equal to 3 fold but lower than 10 fold) | – | < 6.00 | – | < 5.00 | – | – | –
9 | CCc1cc(NC(=O)C(=O)N2C[C@H](C)CC[C@H]2c2ccc(C(=O)NC)s2)cnc1N (single isomer, unassigned) [Compound 835] | < 6.30 | < 6.30 | < 6.30 | < 6.00 | < 6.00 | C (an IC50 ratio of less than 3 fold) | < 5.00 | – | – | – | – | – | –
10 | Cc1cc(NC(=O)C(=O)N2CC3(CCC2c2ccc(F)cc2)CC3)cnc1N (stereo not shown) [Compound 753] | 6.30 to 7.30 | 6.30 to 7.30 | > 7.30 | < 6.00 | 6.00 to 7.00 | A (an IC50 ratio greater than or equal to 10 fold) | 5.00 to 6.00 | – | – | – | – | – | –
11 | Cc1cc(NC(=O)C(=O)N2C[C@H](C)CC[C@H]2c2cccc3c2CC(=O)N3)cnc1N (racemic) [Compound 714, N-(6-Amino-5-methyl-3-pyridyl)-2-[(2S,5R)-5-methyl-2-(2-oxoindolin-4-yl)-1-piperidyl]-2-oxo-acetamide] | 6.30 to 7.30 | 6.30 to 7.30 | > 7.30 | < 6.00 | 6.00 to 7.00 | A (an IC50 ratio greater than or equal to 10 fold) | 5.00 to 6.00 | – | – | – | – | – | –
12 | Cc1cc(NC(=O)C(=O)N2C[C@@H](C)CC[C@@H]2c2ccc3sc(C4CCN(C)CC4)cc3c2)cnc1N [Compound 1220, N-(6-amino-5-methyl-3-pyridyl)-2-[(2R,5S)-5-methyl-2-[2-(1-methyl-4-piperidyl)benzothiophen-5-yl]-1-piperidyl]-2-oxo-acetamide] | > 7.30 | > 7.30 | > 7.30 | > 7.00 | > 7.00 | – | – | – | – | > 6.00 | – | – | B (an IC50 ratio greater than or equal to 3 fold but lower than 10 fold)
13 | CCc1cc(NC(=O)C(=O)N2C[C@@H](C)CC[C@@H]2c2ccc3sc(N4CCN(C)CC4)nc3c2)cnc1N [Compound 1244, N-(6-amino-5-ethylpyridin-3-yl)-2-((2R,5S)-5-methyl-2-(2-(4-methylpiperazin-1-yl)benzo[d]thiazol-5-yl)piperidin-1-yl)-2-oxoacetamide] | 6.30 to 7.30 | – | > 7.30 | > 7.00 | – | A (an IC50 ratio greater than or equal to 10 fold) | – | > 7.00 | – | – | > 7.30 | > 6.00 | –
14 | CCc1cc(NC(=O)C(=O)N2C[C@@H](C)[C@@H](OC(C)C)C[C@@H]2c2ccc3scnc3c2)cnc1N (racemic) [Compound 1094, N-(6-Amino-5-ethyl-3-pyridyl)-2-[(2S,4R,5S)-2-(1,3-benzothiazol-5-yl)-4-isopropoxy-5-methyl-1-piperidyl]-2-oxo-acetamide] | 6.30 to 7.30 | 6.30 to 7.30 | 6.30 to 7.30 | 6.00 to 7.00 | > 7.00 | – | – | – | – | > 6.00 | – | – | A (an IC50 ratio greater than or equal to 10 fold)
15 | C[C@H]1CC[C@H](c2ccc3c(c2)CNC3=O)N(C(=O)C(=O)Nc2cncc(C(N)=O)c2)C1 (single isomer, unassigned) [Compound 741, 5-(2-(5-methyl-2-(1-oxoisoindolin-5-yl)piperidin-1-yl)-2-oxoacetamido)nicotinamide] | < 6.30 | < 6.30 | < 6.30 | < 6.00 | < 6.00 | C (an IC50 ratio of less than 3 fold) | < 5.00 | – | – | – | – | – | –
16 | C[C@H]1CC[C@H](c2ccccn2)N(C(=O)C(=O)Nc2cncc(C(N)=O)c2)C1 (single isomer, unassigned) [Compound 590] | > 7.30 | 6.30 to 7.30 | > 7.30 | < 6.00 | – | A (an IC50 ratio greater than or equal to 10 fold) | – | > 7.00 | 5.00 to 6.00 | – | – | – | –
